Laboratory results from patent US20050209207A1, “Aerosol formulations containing esters of 3,17-dihydroxy oestratriene derivatives for pulmonary delivery” (priority 2002, published 2005).
Read-outs that look alike come from different tables or passages of the source.

Tests used:
[1] = cited from earlier work
[2] = transdermal patches; cited from earlier work
[3] = intranasal aqueous solution with dimethyl-β-cyclodextrin, compared to the IV route; cited from earlier work
[4] = porous particles, Andersen cascade Impaction; cited from earlier work
[5] = 0.1% w/v drug, HFA134a
[6] = Andersen Cascade Impactor (ACI) deposition studies of HFA solution pMDIs; assay type: physicochemical
Description: All impaction studies were conducted with formulations contained in cut edge anodised aluminium cans fitted with 50 μl or 100 μl valves. The studies were carried out using an Andersen Cascade Impactor (ACI) fitted with a USP XXII metal throat entry port. The ACI was operated at a flow rate of 28.3±2 l min^−1. All solution HFA formulations were discharged into the ACI through an actuator having an orifice diameter of 0.22 mm. Deposition of the drug on each ACI plate was determined by high pressure liquid chromatography (HPLC). MMAD values and corresponding geometric standard deviations (GSD) were calculated from plots of the cumulative percentage undersize of drug collected on each ACI plate (probit scale), against the upper cut off diameter for each respective ACI plate (log 10 scale).

[7] = 0.1% w/v (50 μg/dose), 5% w/w ethanol, 0.1% w/w glycerol, HFA134a, ten shots

Compound: 17β-Oestradiol
- peak plasma concentration ([1]; sublingual, 0.25 mg): 294 pg/mL
- peak plasma concentration ([1]; sublingual, 0.5 mg): 245 pg/mL
- peak plasma concentration ([1]; sublingual, 1.0 mg): 451 pg/mL
- time to peak plasma concentration ([1]; sublingual, 0.25, 0.5 and 1.0 mg): ≤ 1 h
- 17β-oestradiol levels ([1]; sublingual, after 6 hours): less than 60 pg/ml
- mean serum oestradiol levels [2]: 70 to 90 pg/mL
- bioavailability [3]: approximately 65%
- fine particle fraction [4]: approximately 33%

Compound: C[C@]12CC[C@@H]3c4ccc(OC(=O)c5ccccc5)cc4CC[C@H]3[C@@H]1CC[C@@H]2O [Formulation 3-Benzoate]
- Solubility ([5]; 13% w/w ethanol, no glycerol): Insoluble

Compound: C[C@]12CC[C@@H]3c4ccc(O)cc4CC[C@H]3[C@@H]1CC[C@@H]2OC(=O)CCC1CCCC1 [Formulation 17-Cypionate]
- Solubility ([5]; 5% w/w ethanol, 0.1% w/w glycerol): Insoluble

Compound: CCCCCCC(=O)O[C@H]1CC[C@H]2[C@@H]3CCc4cc(O)ccc4[C@H]3CC[C@]12C [Formulation 17-Enanthate, β-oestradiol enanthate]
- GSD [6, 7]: 1.7
- MMAD [6, 7]: 1.5 μm
- fine particle dose (FPD) [6, 7]: 38.8 µg
- fine particle fraction (FPF) [6, 7]: 78.5%

Compound: β-oestradiol-3,17-dipropionate [β-oestradiol 3,17-dipropionate]
- MMAD ([6]; 200 μg/dose (0.4% w/v), 0% w/w ethanol, HFA 134a): 0.90 μm
- MMAD ([6]; 200 μg/dose (0.4% w/v), 2% w/w ethanol, HFA 134a): 1.50 μm
- MMAD ([6]; 200 μg/dose (0.4% w/v), 5% w/w ethanol, HFA 134a): 1.50 μm
- MMAD ([6]; 500 μg/dose (1% w/v), 5% w/w ethanol, HFA 134a): 1.90 μm
